# According to ChEMBL document CHEMBL5226285, “The long and winding road of designing phosphodiesterase inhibitors for the treatment of heart failure” (Eur J Med Chem, 2021):
# Columns and labels:
# [1] = biological target: High affinity cGMP-specific 3',5'-cyclic phosphodiesterase 9A (Homo sapiens, UniProt O76083)
# Description: Inhibition of PDE9A (unknown origin)
# [2] = biological target: cGMP-dependent 3',5'-cyclic phosphodiesterase (Homo sapiens, UniProt O00408)
# [3] = biological target: T1, cAMP and cAMP-inhibited cGMP 3',5'-cyclic phosphodiesterase 10A (Homo sapiens, UniProt Q9Y233)
# [4] = biological target: T2, 3',5'-cyclic-AMP phosphodiesterase 4B (Homo sapiens, UniProt Q07343)
# Description: Inhibition of human recombinant PDE4B1 using FAM-cAMP as substrate incubated for 20 mins
# [5] = biological target: T2, 3',5'-cyclic-AMP phosphodiesterase 4B; remark: listed apart in the source
# Description: Displacement of [3H]-cAMP from full-length recombinant human PDE4B1 by fluorescence polarisation assay
# [6] = biological target: 3',5'-cyclic-AMP phosphodiesterase 4D (Homo sapiens, UniProt Q08499)
# Description: Displacement of [3H]-cAMP from full-length recombinant human PDE4D7 by fluorescence polarisation assay
# [7] = biological target: Dual specificity calcium/calmodulin-dependent 3',5'-cyclic nucleotide phosphodiesterase 1B (Homo sapiens, UniProt Q01064)
# Description: Inhibition of PDE1B (unknown origin)
# [8] = biological target: T3, cGMP-specific 3',5'-cyclic phosphodiesterase (Homo sapiens, UniProt O76074)
# Description: Inhibition of PDE5A1 (unknown origin) using FAM-cGMP as substrate incubated for 60 mins by IMAP-fluorescence polarization assay
# Acetylcholinesterase = biological target: T4, Acetylcholinesterase (Rattus norvegicus, UniProt P37136)
# T4 sequence (P37136 whole entry): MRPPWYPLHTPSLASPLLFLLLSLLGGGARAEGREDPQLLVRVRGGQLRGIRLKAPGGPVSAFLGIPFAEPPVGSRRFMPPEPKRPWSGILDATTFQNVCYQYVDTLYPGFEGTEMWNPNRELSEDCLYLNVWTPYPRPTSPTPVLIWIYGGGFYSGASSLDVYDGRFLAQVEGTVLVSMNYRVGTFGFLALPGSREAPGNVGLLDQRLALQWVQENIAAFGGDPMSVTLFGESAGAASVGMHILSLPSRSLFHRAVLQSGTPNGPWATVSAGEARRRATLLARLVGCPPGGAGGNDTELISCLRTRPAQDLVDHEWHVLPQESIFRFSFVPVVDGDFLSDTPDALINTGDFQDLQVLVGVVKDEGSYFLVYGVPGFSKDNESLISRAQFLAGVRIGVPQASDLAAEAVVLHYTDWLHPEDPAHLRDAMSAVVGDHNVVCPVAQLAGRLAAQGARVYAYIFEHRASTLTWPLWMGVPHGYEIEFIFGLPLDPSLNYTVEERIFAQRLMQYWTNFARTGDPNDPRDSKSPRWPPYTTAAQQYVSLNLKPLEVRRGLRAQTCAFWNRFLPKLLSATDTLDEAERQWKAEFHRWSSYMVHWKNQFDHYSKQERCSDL
# Description: Inhibition of rat cortex AChE using acetylthiocholine iodide as substrate incubated for 20 mins by DTNB-reagent based Ellman's method
# [9] = biological target: High affinity cAMP-specific and IBMX-insensitive 3',5'-cyclic phosphodiesterase 8A (Homo sapiens, UniProt O60658); assay: biochemical; format: cell-based, Sf9
# Description: Inhibition of human recombinant PDE8A expressed in baculovirus infected Sf9 insect cells
# [10] = biological target: T3, cGMP-specific 3',5'-cyclic phosphodiesterase; remark: listed apart in the source
# Description: Inhibition of human recombinant PDE5A using (Fl)-cAMP and TAMRA-cGMP as substrate incubated for 60 mins by IMAP-fluorescence polarization assay
# [11] = biological target: T1, cAMP and cAMP-inhibited cGMP 3',5'-cyclic phosphodiesterase 10A; remark: listed apart in the source
# Description: Inhibition of PDE10A (unknown origin)
# Phosphodiesterase 4 = Phosphodiesterase 4 (Homo sapiens, UniProt P27815+Q08499+Q07343+Q08493); format: protein assay
# Description: Inhibition of PDE4 (unknown origin)
# T2 sequence (Q07343 whole entry): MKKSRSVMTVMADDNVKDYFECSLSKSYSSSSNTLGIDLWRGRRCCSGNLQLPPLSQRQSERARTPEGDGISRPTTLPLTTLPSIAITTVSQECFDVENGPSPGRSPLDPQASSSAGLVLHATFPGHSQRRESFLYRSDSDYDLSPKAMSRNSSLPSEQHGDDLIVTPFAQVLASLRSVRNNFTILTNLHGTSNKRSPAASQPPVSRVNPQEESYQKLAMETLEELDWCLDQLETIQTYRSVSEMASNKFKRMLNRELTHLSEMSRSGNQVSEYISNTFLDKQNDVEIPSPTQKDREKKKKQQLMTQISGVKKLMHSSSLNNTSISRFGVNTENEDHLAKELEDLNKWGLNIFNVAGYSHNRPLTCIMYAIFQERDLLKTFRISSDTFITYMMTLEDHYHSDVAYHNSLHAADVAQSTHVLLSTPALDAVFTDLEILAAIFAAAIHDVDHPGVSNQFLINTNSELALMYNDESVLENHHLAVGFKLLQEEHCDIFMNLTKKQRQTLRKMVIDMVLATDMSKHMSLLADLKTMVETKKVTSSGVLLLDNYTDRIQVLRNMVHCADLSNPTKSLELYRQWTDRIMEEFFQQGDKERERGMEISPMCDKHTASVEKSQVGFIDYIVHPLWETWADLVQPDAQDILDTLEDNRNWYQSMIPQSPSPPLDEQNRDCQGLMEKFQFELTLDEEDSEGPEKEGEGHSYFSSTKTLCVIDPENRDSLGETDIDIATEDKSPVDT
# Chain of Dual specificity calcium/calmodulin-dependent 3',5'-cyclic nucleotide phosphodiesterase 1B (Q01064 whole entry): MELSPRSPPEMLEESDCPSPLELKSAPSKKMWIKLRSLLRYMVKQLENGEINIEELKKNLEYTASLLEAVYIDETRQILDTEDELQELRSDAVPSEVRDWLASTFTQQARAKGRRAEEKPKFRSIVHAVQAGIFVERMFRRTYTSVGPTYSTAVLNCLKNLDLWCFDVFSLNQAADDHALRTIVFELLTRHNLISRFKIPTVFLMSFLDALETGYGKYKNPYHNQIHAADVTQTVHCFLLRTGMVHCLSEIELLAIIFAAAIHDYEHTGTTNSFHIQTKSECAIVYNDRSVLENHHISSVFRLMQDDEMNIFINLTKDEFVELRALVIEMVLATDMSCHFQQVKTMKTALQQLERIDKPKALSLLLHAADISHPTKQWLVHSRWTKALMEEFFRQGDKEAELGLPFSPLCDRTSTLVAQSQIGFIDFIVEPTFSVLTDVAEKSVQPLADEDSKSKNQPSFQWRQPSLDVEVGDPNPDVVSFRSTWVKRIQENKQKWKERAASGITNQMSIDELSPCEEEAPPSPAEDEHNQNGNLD
# T1 sequence (Q9Y233 whole entry): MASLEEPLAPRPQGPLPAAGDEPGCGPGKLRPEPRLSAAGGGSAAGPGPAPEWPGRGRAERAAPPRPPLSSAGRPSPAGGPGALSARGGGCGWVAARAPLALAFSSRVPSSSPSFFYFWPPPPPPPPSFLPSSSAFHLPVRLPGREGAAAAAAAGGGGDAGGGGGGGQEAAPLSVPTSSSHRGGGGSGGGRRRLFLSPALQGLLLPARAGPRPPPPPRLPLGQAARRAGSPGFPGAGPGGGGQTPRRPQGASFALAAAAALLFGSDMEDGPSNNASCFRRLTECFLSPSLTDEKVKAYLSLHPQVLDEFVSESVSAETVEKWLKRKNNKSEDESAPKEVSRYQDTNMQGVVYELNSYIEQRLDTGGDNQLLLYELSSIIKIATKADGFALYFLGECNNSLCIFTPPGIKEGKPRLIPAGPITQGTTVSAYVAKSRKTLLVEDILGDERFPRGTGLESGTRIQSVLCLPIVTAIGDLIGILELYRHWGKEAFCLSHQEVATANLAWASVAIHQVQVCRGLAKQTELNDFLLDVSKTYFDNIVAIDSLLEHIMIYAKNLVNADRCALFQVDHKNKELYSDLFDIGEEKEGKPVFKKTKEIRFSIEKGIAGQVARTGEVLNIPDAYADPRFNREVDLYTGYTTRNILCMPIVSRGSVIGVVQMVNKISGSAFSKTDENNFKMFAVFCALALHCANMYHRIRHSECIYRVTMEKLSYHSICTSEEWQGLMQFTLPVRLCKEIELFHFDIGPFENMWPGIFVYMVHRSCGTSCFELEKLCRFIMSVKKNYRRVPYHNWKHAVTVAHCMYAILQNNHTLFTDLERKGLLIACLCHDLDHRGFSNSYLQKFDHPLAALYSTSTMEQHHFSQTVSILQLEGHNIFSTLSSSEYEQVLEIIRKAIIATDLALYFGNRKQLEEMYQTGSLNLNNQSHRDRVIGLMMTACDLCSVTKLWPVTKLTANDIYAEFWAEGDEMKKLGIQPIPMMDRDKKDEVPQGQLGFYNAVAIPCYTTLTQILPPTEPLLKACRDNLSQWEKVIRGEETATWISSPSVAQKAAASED
# Chain of High affinity cGMP-specific 3',5'-cyclic phosphodiesterase 9A (O76083 whole entry): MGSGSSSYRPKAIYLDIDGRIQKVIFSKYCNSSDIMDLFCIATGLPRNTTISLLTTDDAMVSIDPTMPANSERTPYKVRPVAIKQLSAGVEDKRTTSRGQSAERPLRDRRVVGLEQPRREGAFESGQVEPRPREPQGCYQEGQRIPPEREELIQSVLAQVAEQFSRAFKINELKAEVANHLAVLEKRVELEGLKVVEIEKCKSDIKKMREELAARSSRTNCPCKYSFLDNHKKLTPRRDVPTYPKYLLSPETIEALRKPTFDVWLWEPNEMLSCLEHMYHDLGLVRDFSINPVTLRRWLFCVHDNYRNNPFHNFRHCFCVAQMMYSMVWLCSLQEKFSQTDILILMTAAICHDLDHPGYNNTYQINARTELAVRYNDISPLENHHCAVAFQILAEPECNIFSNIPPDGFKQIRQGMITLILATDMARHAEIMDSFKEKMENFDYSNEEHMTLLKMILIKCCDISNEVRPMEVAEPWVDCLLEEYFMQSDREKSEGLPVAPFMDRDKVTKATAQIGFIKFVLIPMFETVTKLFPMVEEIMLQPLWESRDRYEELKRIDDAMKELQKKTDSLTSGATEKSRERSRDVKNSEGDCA
# Chain of 3',5'-cyclic-AMP phosphodiesterase 4D (Q08499 whole entry): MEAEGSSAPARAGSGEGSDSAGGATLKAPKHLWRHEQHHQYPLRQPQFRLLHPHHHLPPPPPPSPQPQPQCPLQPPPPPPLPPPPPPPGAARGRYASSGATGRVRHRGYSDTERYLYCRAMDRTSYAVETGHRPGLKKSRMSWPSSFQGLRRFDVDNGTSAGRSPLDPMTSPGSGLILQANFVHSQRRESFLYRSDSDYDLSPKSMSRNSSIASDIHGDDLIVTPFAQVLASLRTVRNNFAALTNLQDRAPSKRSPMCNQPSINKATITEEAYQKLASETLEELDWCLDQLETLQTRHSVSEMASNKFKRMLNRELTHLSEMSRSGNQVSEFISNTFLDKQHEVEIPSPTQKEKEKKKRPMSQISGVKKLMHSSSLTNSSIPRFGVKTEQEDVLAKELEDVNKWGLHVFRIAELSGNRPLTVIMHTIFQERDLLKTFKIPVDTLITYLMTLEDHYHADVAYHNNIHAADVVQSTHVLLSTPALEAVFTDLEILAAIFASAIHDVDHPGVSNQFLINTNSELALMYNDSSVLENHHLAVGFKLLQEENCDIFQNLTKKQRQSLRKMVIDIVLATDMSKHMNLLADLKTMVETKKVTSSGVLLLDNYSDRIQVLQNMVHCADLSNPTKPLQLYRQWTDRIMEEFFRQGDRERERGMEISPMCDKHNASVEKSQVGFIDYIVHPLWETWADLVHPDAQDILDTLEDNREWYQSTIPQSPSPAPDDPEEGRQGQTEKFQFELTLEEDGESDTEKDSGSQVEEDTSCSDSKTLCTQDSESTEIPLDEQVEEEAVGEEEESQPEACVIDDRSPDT
# Chain of High affinity cAMP-specific and IBMX-insensitive 3',5'-cyclic phosphodiesterase 8A (O60658 whole entry): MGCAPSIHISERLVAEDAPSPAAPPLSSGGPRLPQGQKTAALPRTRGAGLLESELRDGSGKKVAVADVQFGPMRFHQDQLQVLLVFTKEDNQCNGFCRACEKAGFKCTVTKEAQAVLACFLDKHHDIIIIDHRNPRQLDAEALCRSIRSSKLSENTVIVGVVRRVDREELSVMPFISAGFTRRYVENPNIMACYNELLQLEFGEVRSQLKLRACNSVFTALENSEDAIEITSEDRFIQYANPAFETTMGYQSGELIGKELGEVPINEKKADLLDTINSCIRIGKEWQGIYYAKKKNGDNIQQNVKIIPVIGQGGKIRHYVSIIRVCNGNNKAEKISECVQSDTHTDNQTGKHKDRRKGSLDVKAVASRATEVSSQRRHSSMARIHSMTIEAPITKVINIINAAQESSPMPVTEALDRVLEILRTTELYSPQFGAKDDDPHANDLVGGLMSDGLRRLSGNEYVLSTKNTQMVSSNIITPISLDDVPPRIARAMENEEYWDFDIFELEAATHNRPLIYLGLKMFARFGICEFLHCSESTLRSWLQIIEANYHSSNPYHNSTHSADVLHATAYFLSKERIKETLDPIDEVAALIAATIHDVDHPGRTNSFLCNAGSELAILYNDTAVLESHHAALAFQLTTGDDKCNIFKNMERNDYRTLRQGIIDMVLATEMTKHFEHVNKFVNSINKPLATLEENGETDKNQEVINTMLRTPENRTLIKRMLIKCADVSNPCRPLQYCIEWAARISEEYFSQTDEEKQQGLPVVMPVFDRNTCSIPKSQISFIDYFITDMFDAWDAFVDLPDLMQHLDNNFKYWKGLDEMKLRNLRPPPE
smiles,measurement,setting,value
C[C@@H](Nc1nc2c(cnn2C2CCCC2)c(=O)n1Cc1ccccc1)c1ccc(Cl)cc1,IC50,[1],> 10000 nM
Cc1ncn(-c2nc3c(C(=O)N[C@@H](c4ccc(OC(F)(F)F)cc4)C(C)(C)O)cnn3cc2C)n1,IC50,[2],0.51 nM
CCCCOc1ccc(F)c(-c2nc(C)c3nnc4ccc(OCCF)nc4n23)c1,IC50,[3],> 1000 nM
O=C1NC[C@@H]2[C@@H](c3ccc(OC(F)F)c(OCC4CC4)c3)CCN12,IC50,[4],18 nM
N#CC(c1ccc(OC(F)F)c(OC2CCCC2)c1)c1ccc(Cl)nn1 (centres undefined),IC50,[5],290 nM
same,IC50,[6],310 nM
CCCN(CCC)c1ncnc2c(OC)c(OC)c(OC)cc12,IC50,[7],219 nM
O=C1[C@@H]2Cc3c([nH]c4ccccc34)[C@@H](c3ccc4c(c3)OCO4)N2C(=O)CN1CCC1CCN(Cc2ccccc2)CC1,IC50,[8],32 nM
same,IC50,Acetylcholinesterase,1530 nM
OCCN(CCO)c1nc(N2CCCCC2)c2nc(N(CCO)CCO)nc(N3CCCCC3)c2n1 [DIPYRIDAMOLE],IC50,[9],4000 nM
CCN1CC(=O)N2[C@H](c3ccc(Cl)cc3)c3[nH]c4ccccc4c3C[C@@H]2C1=O,IC50,[10],3 nM
COc1ccc([C@@H]2c3[nH]c4ccccc4c3C[C@H]3C(=O)N(CCC4CCN(Cc5ccccc5)CC4)CC(=O)N23)cc1,IC50,[8],15 nM
same,IC50,Acetylcholinesterase,3230 nM
COc1cc2ncnc(C(C)c3cccc(Cl)c3)c2cc1OC (centres undefined),IC50,[7],130 nM
COc1cc2ncnc(N3CC[C@@H](Oc4cnc5ccccc5n4)C3)c2cc1OC,IC50,[11],6 nM
CC(=O)OCCOc1nc(Oc2ccc3c(c2)COB3O)ccc1C#N,IC50,Phosphodiesterase 4,0.7 nM
O=C1[C@H]2Cc3c([nH]c4ccccc34)[C@@H](c3ccc4c(c3)OCO4)N2C(=O)CN1CCC1CCN(Cc2ccccc2)CC1,IC50,[8],36 nM
same,IC50,Acetylcholinesterase,153 nM
COc1ccc([C@H]2CCN3C(=O)NC[C@H]23)cc1OC1CCCC1,IC50,[4],27 nM
